US9335323B2, “Method for sorting of pluripotent cells” (KYOTO UNIVERSITY, priority 2012, dated 2016)
Blank lines part the entries; values can stand above or below the compound they belong to.

Key:
human ES cells [1] = test: Microscopy and FACS of human ES cells and differentiated cells; format: cell-based
Method: Cells were prepared as above. After staining with 1 μM Compound 1 for 1 hour, cells were rinsed with PBS and cultured for additional 24 hours. Fluorescent microscopy was performed by using Olympus IX71 with DP72. CsA was added at the concentration of 10 μM during staining with Compound 1 and following culture until analysis. For FACS analysis, the cells were washed twice with ice-cold PBS and then dissociated with 0.25% trypsin-EDTA into a single cell suspension for direct analysis. The proportions of cells with Compound 1 were examined on a FACSCalibur flow cytometer (Becton Dickenson, Calif., USA) with reference to a baseline of untreated undifferentiated or differentiated hESCs.

human ES cells [2] = test: Fluorescence microscopic imaging of human ES cells and retinoic acid-differentiated cells; format: cell-based; details: 1 μM, 2 hours
Method: The hES cell line KhES-1 was maintained as described previously (Suemori, H. et al. Biochem. Biophys. Res. Commun. 2006, 345, 926-932). To induce differentiation of hESCs, cells seeded onto Matrigel-coated plate were cultured for 4 days with 500 nM all-trans retinoic acid (Sigma R2625) in DMEM supplemented with 10% FBS. After staining with 1 μM Compound 1 for 2 hours, cells were rinsed with PBS and kept in fresh medium (without dye). Fluorescent microscopy was performed by using Olympus IX71 with DP72.

ABCC1 (MRP1) = ABCC1 (MRP1) (Homo sapiens, UniProt P33527); test: Accumulation of fluorescent compound in cells with different ABCC1 (MRP1) expression; format: cell-based; details: stained cells regardless of expression level
Method: (§1) Cells were subcultured in 35 mm/glass base dish (IWAKI) at a density of 5×10^5 cells per dish in DMEM containing 10% FBS for 24-48 hours. Then, cells were incubated in DMEM containing 10% FBS and the compounds for 2 hours at 37° C., washed with phosphate-buffered saline (PBS), and observed using a confocal microscope (LSM 700; Carl Zeiss).
(§2) MDR1-expressing model cell lines (KB/MDR1) were established from KB3-1, a cell line with no MDR1 expression. KB/MDR1 and KB3-1 were treated with Compound 1 for 2 hrs. Then, their images were observed under a fluorescent microscope (FIG. 4c, 4d). […] Similar experiments were conducted with ABCG2 and ABCC1 (MRP1).

human iPS cells [3] = test: Sub-cellular localization in human iPS cells (co-staining with MitoRed, CCCP); format: cell-based; details: for cells in which mitochondria are stained: human iPS cells and feeder cells; for sub-cellular localization: human iPS cells on feeder cells
Method: Human iPS cells (clone#201B7) were plated on SNL feeder cells in 24-well plate. One day after plating, the cells were incubated with 1 μM Compound 1 for 4 hours at 37° C. After removing Compound 1 by washing with PBS, the cells were incubated with 9.6 nM MitoRed for 30 min at 37° C. The cells were rinsed with PBS and kept in fresh medium (without dye). Fluorescence microscopic images were taken by using Carl Zeiss Axioinvert 100M

human iPS cells [4] = test: Fluorescence microscopic imaging of partially differentiated human iPS cells (donut-shaped colonies); format: cell-based; details: over-grown, 4 μM, 4.5 hours
Method: Human iPS cells (clone#201B7) were plated on SNL feeder cells in 96-well plate. […] These cells were incubated with 4 μM Compound 1 for 4.5 hours at 37° C. Fluorescence microscopic images were taken by using Carl Zeiss Axioskop.

ABCB1 (MDR1) [5] = test: Accumulation of fluorescent compound in KB3-1 and KB/MDR1 cells; format: cell-based, human; details: KB3-1 cells with no MDR1 expression, 2 hrs
Method: (§3) KB/MDR1, stably expressing human MDR1, and KB3-1 host cells (Ueda, K et al., PNAS 84, 3004-3008, 1987) were maintained in DMEM supplemented with 10% FBS in a humidified incubator (5% CO2) at 37° C. Cells were subcultured in 35 mm/glass base dish (IWAKI) at a density of 5×10^5 cells per dish in DMEM containing 10% FBS for 24-48 hours.

ABCB1 (MDR1) [6] = target: T1, ABCB1 (MDR1) (Homo sapiens, UniProt P08183); test: as above; format: cell-based
T1 construct: expressed in transfected cells; host or cells: KB/MDR1 (derived from KB3-1)
Method: as §3

human iPS cells [7] = test: Flow cytometry (FACS) of mixtures of human iPS cells and feeder cells; format: cell-based
Method: Human iPS cells (clone#201B7) cells (Takahashi, K. et al. Cell 2007, 131, 861-872) were plated at a density of 2×10^5 cells/well of 6-well plate on SNL feeder cells (McMahon, A. P. and Bradley, A., Cell, 62, 1073-1085, 1990). Six days after plating, the cells were incubated with 2 μM Compound 1 (Table 2) for 3 hours (fluorescence microscopic images were taken at this point). The cells were dissociated with Accutase (Invitrogen) into single cells and stained with a-SSEA-4-Alexa647 for 30 min at room temperature. After washing, FACS (FACS Aria II) analysis was performed.

ABCG2 = target: T2, ABCG2 (Homo sapiens, UniProt Q9UNQ0); test: Accumulation of fluorescent compound in cells with different ABCG2 expression; format: cell-based; details: stained cells regardless of expression level
T2 sequence (Q9UNQ0 1-655): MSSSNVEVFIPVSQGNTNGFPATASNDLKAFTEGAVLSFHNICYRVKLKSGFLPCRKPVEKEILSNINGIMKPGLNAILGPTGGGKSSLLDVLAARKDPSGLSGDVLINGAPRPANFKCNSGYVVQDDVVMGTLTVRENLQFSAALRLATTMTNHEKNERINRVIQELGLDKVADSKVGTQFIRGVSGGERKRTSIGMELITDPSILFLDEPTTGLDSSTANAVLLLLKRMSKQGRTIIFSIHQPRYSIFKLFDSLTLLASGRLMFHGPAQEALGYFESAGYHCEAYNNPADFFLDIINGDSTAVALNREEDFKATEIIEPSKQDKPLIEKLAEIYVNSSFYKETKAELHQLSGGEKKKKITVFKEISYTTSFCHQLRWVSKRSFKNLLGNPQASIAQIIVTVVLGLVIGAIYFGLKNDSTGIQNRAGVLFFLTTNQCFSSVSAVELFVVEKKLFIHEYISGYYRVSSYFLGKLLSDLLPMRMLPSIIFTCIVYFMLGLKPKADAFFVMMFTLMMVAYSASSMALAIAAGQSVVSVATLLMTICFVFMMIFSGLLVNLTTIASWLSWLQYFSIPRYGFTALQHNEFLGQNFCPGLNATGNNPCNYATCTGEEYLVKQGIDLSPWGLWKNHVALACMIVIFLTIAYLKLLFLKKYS
Method: as §1, §2

[8] = system: mitochondrial proteins of human iPS cells; test: 2-DE and mass analysis of mitochondrial proteins labeled in human iPS cells; format: cell-based; details: 1 μM, 4 hours, 2-dimensional SDS-PAGE
Method: Human iPS cells were treated with the chloroacetyl derivative of Compound 1 (Compound 22) (1 μM) for 4 hours, and then washed twice with PBS. After treatment with CTK solution (Reprocell) to remove SNL feeder cells, human iPS cells were harvested with treatment of accutase. Mitochondria fraction was obtained from the cell pellet by using ProteoExtract® Cytosol/Mitochondria Fractionation kit according to the manufacturer's instruction. Isoelectric focusing (IEF) was performed by using ampholine (pH 3.5-10, Phamalyte 3-10 for IEF, GE Healthcare). Then, the IEF strips were separated on 10% SDS-PAGE gel for 2D analysis. 2D fluorescence image was acquired using the Typhoon 9400 scanner (GE healthcares) at excitation/emission wavelengths of 532 nm/580 nm. The fluorescence-labeled spots were excised from the gel for mass analysis.

human iPS cells [9] = test: Image-based screening: fluorescence staining of human iPS cells versus feeder cells; format: cell-based; details: fluorescence images, human iPS cells on SNL feeder cells, FIG. 1A
Method: Fluorescent-compound libraries were provided from Young-Tae Chang's group (Ahn, Y-H., Lee, J-S. and Chang, Y-T. J. Am. Chem. Soc. 2007, 129, 4510-4511). Human iPS cells (clone#[…]) were plated on SNL feeder cells in 96-well plate. Five days after plating, fluorescent compounds were added at the final concentration of 4 μM. After incubation overnight, fluorescence microscopic images were taken by using Carl Zeiss Axioskop.

[10] = doubly stained with Compound 1 and anti-SSEA-4 antibody
[11] = mixture of human iPS cells and feeder cells, 2 μM, 3 hours, flow cytometry

T1 sequence (P08183 whole entry): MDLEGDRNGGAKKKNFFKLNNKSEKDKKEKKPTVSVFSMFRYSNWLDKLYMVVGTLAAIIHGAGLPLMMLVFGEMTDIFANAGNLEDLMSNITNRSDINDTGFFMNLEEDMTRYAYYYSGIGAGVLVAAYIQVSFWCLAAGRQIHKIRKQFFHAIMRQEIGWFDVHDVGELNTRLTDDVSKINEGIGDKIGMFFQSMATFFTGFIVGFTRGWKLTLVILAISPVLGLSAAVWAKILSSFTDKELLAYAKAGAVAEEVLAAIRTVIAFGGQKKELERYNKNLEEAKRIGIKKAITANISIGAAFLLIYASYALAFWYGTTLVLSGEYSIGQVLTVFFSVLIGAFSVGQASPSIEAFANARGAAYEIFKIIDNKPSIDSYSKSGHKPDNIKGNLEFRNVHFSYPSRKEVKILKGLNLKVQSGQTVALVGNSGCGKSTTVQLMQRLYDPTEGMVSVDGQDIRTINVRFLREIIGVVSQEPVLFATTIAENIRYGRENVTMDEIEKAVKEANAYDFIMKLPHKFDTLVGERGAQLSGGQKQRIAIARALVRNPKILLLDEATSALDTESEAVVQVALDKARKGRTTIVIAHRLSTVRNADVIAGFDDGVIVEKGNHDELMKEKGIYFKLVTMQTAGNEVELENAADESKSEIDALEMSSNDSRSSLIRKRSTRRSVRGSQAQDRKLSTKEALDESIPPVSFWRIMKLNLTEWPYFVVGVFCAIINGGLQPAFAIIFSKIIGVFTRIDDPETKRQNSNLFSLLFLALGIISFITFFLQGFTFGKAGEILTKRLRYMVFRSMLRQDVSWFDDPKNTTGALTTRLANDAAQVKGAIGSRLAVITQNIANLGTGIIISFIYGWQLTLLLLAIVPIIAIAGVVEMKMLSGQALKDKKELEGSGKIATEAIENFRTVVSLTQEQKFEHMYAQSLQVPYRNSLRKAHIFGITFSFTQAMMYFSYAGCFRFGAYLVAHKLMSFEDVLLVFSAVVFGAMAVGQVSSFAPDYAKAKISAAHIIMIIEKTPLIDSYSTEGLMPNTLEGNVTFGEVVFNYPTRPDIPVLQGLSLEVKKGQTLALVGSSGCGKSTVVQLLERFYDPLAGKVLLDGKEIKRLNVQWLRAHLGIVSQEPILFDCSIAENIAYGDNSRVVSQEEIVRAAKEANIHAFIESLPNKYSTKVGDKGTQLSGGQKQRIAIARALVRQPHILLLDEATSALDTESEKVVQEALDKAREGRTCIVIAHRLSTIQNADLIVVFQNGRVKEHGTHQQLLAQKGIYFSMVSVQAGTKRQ
Chain of ABCC1 (MRP1) (P33527 whole entry): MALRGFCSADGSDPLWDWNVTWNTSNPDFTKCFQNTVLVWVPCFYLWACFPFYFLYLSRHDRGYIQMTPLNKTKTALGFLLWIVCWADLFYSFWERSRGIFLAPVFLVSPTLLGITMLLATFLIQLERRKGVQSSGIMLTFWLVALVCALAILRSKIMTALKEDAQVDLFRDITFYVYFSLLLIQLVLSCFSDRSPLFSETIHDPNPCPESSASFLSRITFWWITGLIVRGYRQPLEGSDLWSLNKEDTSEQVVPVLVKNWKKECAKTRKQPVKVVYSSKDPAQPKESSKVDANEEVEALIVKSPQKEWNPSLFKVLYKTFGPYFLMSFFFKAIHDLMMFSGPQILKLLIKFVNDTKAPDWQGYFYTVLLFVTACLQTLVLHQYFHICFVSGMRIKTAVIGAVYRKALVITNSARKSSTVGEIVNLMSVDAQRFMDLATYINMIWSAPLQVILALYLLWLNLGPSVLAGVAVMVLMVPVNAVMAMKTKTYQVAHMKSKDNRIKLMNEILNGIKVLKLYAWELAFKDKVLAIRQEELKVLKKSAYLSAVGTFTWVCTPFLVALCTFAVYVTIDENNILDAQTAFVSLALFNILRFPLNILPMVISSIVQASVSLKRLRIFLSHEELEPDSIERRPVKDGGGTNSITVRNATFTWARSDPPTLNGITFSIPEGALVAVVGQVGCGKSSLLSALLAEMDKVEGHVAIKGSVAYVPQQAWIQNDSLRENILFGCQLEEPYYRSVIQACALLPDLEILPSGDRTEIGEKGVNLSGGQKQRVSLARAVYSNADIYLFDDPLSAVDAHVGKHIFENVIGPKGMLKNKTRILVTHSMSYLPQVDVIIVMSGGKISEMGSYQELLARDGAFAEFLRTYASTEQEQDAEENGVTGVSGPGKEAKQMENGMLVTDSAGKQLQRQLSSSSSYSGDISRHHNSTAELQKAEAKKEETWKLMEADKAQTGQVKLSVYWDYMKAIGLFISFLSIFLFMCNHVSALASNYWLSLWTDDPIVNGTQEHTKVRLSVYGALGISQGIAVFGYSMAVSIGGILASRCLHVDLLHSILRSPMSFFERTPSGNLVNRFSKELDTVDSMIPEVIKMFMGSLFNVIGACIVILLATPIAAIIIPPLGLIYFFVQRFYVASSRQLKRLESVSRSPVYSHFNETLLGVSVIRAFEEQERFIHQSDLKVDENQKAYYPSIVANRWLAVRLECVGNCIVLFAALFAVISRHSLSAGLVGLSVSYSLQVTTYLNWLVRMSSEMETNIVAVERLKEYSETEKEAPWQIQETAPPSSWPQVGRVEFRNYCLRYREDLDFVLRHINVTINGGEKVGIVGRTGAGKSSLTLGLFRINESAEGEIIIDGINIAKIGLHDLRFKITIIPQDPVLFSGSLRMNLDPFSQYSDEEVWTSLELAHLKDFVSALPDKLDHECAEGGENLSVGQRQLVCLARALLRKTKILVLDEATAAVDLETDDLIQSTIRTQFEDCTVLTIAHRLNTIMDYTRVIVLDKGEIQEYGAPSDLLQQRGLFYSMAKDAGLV

substrate for ABCC1 (MRP1) (ABCC1 (MRP1)): not a substrate
fluorescent signals in MDR1-expressing cells (ABCB1 (MDR1) [6]; KB/MDR1 cells, 2 hrs): undetectable
substrate for ABCB1 (MDR1) (ABCB1 (MDR1) [6]; KB/MDR1 versus KB3-1): good substrate
substrate for ABCG2 (ABCG2): not a substrate
Structure (SMILES): N=c1ccc2c(-c3ccc(F)cc3)c3ccc(N)cc3oc-2c1 [Compound 1]
fluorescence of human ES cells (human ES cells [1]; 1 μM, 1 hour, microscopy): strong fluorescence
labeling of differentiated cells in the presence of cyclosporine A (human ES cells [1]; cyclosporine A (MDR1 inhibitor) 10 μM): even the differentiated cells were labeled
fluorescence of differentiated cells (human ES cells [1]; derived from human ES cells by retinoic acid, 1 μM, 1 hour, microscopy): little
staining of human ES cells relative to differentiated cells (human ES cells [1]; flow cytometric analysis): ~100 times
staining after partial differentiation by retinoic acid (human ES cells [2]; 500 nM retinoic acid 4 days): less densely stained parts of colonies
staining of human ES cell colonies compared with feeder cells (human ES cells [2]): stained more strongly than feeder cells
staining pattern in the presence of CCCP (human iPS cells [3]; CCCP 5 μM, 1 μM, 2 hours): remained the same
cells in which mitochondria are stained (human iPS cells [3]): only in iPS cells
sub-cellular localization (human iPS cells [3]): overlaps with that of MitoTracker Red
staining of donut-shaped iPS cell colonies (human iPS cells [4]): selectively stained undifferentiated parts of those colonies but not the central parts
staining of KB3-1 cells (ABCB1 (MDR1) [5]): strongly stained
SSEA-4-negative cells not stained by Compound 1 (human iPS cells [7]; [10]): 55.2%
SSEA-4-positive cells also stained by Compound 1 (human iPS cells [7]; [10]): 42.4%
specificity of staining for iPS cells (human iPS cells [7]; human iPS cells versus feeder cells): capable of staining iPS cells specifically
Compound 1-negative population (human iPS cells [7]; [11]): 56.6%
Compound 1-positive population (human iPS cells [7]; [11]): 43.4%

Structure (SMILES): N=c1ccc2c(-c3ccc(F)cc3)c3ccc(NCCCCCCCCCCNC(=O)CCl)cc3oc-2c1 [Compound 22]
selectivity for human iPS cells relative to Compound 1 (human iPS cells [3]; human iPS cells): slightly less than that of Compound 1
sub-cellular localization (human iPS cells [3]): localized in mitochondria of human iPS cells
fluorescently labeled mitochondrial protein identified by mass-sequencing [8]: ADH1 protein

Structure (SMILES): C/N=c1\ccc2c(-c3ccc(F)cc3)c3ccc(NC)cc3oc-2c1 [Compound 35]
staining of human iPS cells compared with feeder cells (human iPS cells [9]): stained human iPS cells stronger than feeder cells

Structure (SMILES): N=c1ccc2c(-c3ccccc3F)c3ccc(N)cc3oc-2c1 [Compound 36]
staining of human iPS cells compared with feeder cells (human iPS cells [9]): stained human iPS cells stronger than feeder cells

Structure (SMILES): ClCc1ccc(C2=c3cc4c5c(c3Oc3c2cc2c6c3CCCN6CCC2)CCC[N+]=5CCC4)cc1.[Cl-] [MitoRed, reference compound]
cells in which mitochondria are stained (human iPS cells [3]): both in human iPS cells and feeder cells
